Patent US20070015743A1, “Quinazoline derivatives as antitumor agents” (priority 2003, published 2007)

Columns and labels:
erbB2 = target: T1, erbB2 (Homo sapiens, UniProt P04626); experiment: Clone 24 phospho-erbB2 cell assay, Test (c); assay type: cell-based; conditions: MCF7 derived cell line overexpressing erbB2 (Clone 24 cells); read-out: IC50 (μM) Test (c): Inhibition of erbB2 tyrosine kinase protein phosphorylation
T1 construct: a cell line that overexpresses full length wild type erbB2 protein; expressed in transfected cells; host or cells: MCF7 (breast carcinoma) derived 'Clone 24' cells
T1 sequence (P04626 23-1255): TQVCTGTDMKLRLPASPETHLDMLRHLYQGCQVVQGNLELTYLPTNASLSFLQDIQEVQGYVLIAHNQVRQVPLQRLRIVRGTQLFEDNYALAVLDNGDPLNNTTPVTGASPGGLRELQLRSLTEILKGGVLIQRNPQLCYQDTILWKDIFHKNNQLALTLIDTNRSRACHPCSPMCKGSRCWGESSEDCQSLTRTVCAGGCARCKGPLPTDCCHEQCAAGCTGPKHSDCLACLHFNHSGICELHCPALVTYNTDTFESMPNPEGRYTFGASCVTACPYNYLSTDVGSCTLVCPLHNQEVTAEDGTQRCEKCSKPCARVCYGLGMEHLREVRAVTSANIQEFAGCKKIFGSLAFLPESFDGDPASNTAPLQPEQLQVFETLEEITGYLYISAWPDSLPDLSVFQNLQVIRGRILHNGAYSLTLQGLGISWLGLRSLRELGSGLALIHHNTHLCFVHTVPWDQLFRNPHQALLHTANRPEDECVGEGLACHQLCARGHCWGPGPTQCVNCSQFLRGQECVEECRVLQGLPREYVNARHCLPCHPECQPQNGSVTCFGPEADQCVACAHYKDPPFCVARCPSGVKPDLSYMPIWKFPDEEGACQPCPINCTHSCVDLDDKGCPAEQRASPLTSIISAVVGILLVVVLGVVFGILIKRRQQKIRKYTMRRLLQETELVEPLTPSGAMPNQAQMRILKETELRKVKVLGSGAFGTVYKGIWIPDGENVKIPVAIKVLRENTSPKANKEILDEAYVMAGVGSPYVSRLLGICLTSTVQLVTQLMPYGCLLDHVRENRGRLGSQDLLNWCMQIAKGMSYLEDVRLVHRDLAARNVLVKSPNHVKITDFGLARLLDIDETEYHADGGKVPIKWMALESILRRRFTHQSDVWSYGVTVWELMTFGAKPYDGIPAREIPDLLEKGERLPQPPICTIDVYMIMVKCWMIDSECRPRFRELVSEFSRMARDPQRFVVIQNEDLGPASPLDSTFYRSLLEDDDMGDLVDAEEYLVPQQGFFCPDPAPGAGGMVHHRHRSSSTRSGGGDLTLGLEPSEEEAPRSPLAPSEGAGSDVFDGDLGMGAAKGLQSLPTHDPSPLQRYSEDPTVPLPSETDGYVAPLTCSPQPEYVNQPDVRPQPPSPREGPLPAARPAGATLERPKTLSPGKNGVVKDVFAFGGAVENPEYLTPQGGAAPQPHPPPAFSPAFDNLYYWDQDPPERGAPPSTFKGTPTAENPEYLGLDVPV
Procedure: This immunofluorescence end point assay measures the ability of a test compound to inhibit the phosphorylation of erbB2 in a MCF7 (breast carcinoma) derived cell line which was generated by transfecting MCF7 cells with the full length erbB2 gene using standard methods to give a cell line that overexpresses full length wild type erbB2 protein (hereinafter ‘Clone 24’ cells).
Clone 24 cells were cultured in Growth Medium (phenol red free Dulbecco's modified Eagle's medium (DMEM) containing 10% foetal bovine serum, 2 mM glutamine and 1.2 mg/ml G418) in a 7.5% CO2 air incubator at 37° C. Cells were harvested from T75 stock flasks by washing once in PBS (phosphate buffered saline, pH7.4, Gibco No. 10010-015) and harvested using 2 mls of Trypsin (1.25 mg/ml)/ethylaminediaminetetraacetic acid (EDTA) (0.8 mg/ml) solution. The cells were resuspended in Growth Medium. Cell density was measured using a haemocytometer and viability was calculated using Trypan Blue solution before being further diluted in Growth Medium and seeded at a density of 1×10^4 cells per well (in 100 ul) into clear bottomed 96 well plates (Packard, No. 6005182).
3 days later, Growth Medium was removed from the wells and replaced with 100 ul Assay Medium (phenol red free DMEM, 2 mM glutamine, 1.2 mg/ml G418) either with or without erbB inhibitor compound. Plates were returned to the incubator for 4 hrs and then 20 μl of 20% formaldehyde solution in PBS was added to each well and the plate was left at room temperature for 30 minutes. This fixative solution was removed with a multichannel pipette, 100 μl of PBS was added to each well and then removed with a multichannel pipette and then 50 μl PBS was added to each well. Plates were then sealed and stored for up to 2 weeks at 4° C.
Immunostaining was performed at room temperature. […]
The Fluorescence signal is each well was measured using an Acumen Explorer Instrument (Acumen Bioscience Ltd.), a plate reader that can be used to rapidly quantitate features of images generated by laser-scanning. […]

erbB2 tyrosine kinase = target: T2, erbB2 tyrosine kinase (Homo sapiens, UniProt P04626); experiment: Protein tyrosine kinase phosphorylation assay, Test (a), erbB2; assay type: biochemical; conditions: read-out: IC50 (μM) Test (a): Inhibition of erbB2 tyrosine kinase protein phosphorylation
T2 construct: Recombinant intracellular fragments of EGFR, erbB2 and erbB4; made in house; host or cells: baculovirus/Sf21 insect cells (cleared lysate used)
T2 sequence (P04626 676-1255 limits assumed): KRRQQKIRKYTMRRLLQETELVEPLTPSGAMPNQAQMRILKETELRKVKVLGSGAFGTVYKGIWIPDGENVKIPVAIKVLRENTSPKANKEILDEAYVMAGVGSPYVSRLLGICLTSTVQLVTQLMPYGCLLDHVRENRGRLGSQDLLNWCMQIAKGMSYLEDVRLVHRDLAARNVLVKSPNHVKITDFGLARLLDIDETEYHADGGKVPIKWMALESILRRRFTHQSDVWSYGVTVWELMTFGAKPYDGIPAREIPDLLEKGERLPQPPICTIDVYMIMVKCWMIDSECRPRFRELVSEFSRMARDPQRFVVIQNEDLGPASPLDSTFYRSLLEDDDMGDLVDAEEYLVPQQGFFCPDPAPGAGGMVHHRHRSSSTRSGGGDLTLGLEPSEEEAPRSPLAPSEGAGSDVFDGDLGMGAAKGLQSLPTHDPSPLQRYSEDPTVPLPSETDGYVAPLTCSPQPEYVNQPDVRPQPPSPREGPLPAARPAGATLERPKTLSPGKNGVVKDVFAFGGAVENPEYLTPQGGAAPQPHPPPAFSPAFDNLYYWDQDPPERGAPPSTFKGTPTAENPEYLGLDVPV
Procedure: (§1) Recombinant intracellular fragments of EGFR, erbB2 and erbB4 (accession numbers X00588, X03363 and L07868 respectively) were cloned and expressed in the baculovirus/Sf21 system. Lysates were prepared from these cells by treatment with ice-cold lysis buffer (20 mM N-2-hydroxyethylpiperizine-N′-2-ethanesulfonic acid (HEPES) pH7.5, 150 mM NaCl, 10% glycerol, 1% Triton X-100, 1.5 mM MgCl2, 1 mM ethylene glycol-bis(β-aminoethyl ether)N′,N′,N′,N′-tetraacetic acid (EGTA), plus protease inhibitors and then cleared by centrifugation.
Constitutive kinase activity of these recombinant proteins was determined by their ability to phosphorylate a synthetic peptide (made up of a random co-polymer of Glutamic Acid, Alanine and Tyrosine in the ratio of 6:3:1). Specifically, Maxisorb™ 96-well immunoplates were coated with synthetic peptide (0.2 μg of peptide in a […] phosphate buffered saline (PBS) solution and incubated at 4° C. overnight). Plates were washed in 50 mM HEPES pH 7.4 at room temperature to remove any excess unbound synthetic peptide. EGFR or erbB2 activities were assessed by incubation in peptide coated plates for 20 minutes at room temperature in 100 mM HEPES pH 7.4 at room temperature, adenosine trisphosphate (ATP) at Km concentration for the respective enzyme, 10 mM MnCl2, 0.1 mM Na3VO4, 0.2 mM DL-dithiothreitol (DTT), 0.1% Triton X-100 with test compound in DMSO (final concentration of 2.5%). […]
The immobilised phospho-peptide product of the reaction was detected by immunological methods. […] After further washing, HRP activity in each well of the plate was measured colorimetrically using 22′-Azino-di-[3-ethylbenzthiazoline sulfonate (6)]diammonium salt crystals (ABTS™ from Roche) as a substrate. Quantification of colour development and thus enzyme activity was achieved by the measurement of absorbance at 405 nm on a Molecular Devices ThermoMax microplate reader. Kinase inhibition for a given compound was expressed as an IC50 value. […] The range of phosphorylation was calculated from the positive (vehicle plus ATP) and negative (vehicle minus ATP) control values.

EGFR tyrosine kinase = target: T3, EGFR tyrosine kinase (Homo sapiens, UniProt P00533); experiment: Protein tyrosine kinase phosphorylation assay, Test (a), EGFR; assay type: biochemical; conditions: read-out: IC50 (μM) Test (a): Inhibition of EGFR tyrosine kinase protein phosphorylation
T3 construct: Recombinant intracellular fragments of EGFR, erbB2 and erbB4; made in house; host or cells: baculovirus/Sf21 insect cells (cleared lysate used)
T3 sequence (P00533 669-1210 limits assumed): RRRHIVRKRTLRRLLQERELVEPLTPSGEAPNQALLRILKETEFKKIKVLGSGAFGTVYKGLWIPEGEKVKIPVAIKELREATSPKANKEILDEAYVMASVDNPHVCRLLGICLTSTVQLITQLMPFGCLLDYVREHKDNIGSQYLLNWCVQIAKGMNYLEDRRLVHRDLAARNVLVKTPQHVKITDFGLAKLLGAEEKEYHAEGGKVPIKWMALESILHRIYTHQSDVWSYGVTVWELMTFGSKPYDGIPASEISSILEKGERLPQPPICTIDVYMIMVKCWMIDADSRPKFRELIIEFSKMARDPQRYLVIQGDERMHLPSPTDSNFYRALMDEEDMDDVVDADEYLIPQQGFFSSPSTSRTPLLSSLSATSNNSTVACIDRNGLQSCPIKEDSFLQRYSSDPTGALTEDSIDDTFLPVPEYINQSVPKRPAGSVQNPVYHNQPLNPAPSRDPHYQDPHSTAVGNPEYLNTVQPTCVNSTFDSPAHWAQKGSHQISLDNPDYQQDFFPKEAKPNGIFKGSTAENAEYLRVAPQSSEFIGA
Procedure: This test measures the ability of a test compound to inhibit the phosphorylation of a tyrosine containing polypeptide substrate by EGFR tyrosine kinase enzyme.
as §1
Constitutive kinase activity of these recombinant proteins was determined by their ability to phosphorylate a synthetic peptide (made up of a random co-polymer of Glutamic Acid, Alanine and Tyrosine in the ratio of 6:3:1). […]
The immobilised phospho-peptide product of the reaction was detected by immunological methods. […] After further washing, HRP activity in each well of the plate was measured colorimetrically using 22′-Azino-di-[3-ethylbenzthiazoline sulfonate (6)]diammonium salt crystals (ABTS™ from Roche) as a substrate. Quantification of colour development and thus enzyme activity was achieved by the measurement of absorbance at 405 nm on a Molecular Devices ThermoMax microplate reader. […]

IC50 (erbB2)	IC50 (erbB2 tyrosine kinase)	IC50 (EGFR tyrosine kinase)	Structure (SMILES)
1.4 µM	0.048 µM	–	CN(C)CC(=O)N1CCC[C@@H]1COc1cccc2ncnc(Nc3ccc(OCc4cncs4)c(Cl)c3)c12 [Example 25, N-[3-Chloro-4-(1,3-thiazol-5-ylmethoxy)phenyl]-5-({(2R)-1-[(dimethylamino)acetyl]pyrrolidin-2-yl}methoxy)quinazolin-4-amine]
0.19 µM	0.034 µM	2.4 µM	O=C(CO)N1CCC[C@H](COc2cccc3ncnc(Nc4ccc(OCc5cscn5)c(Cl)c4)c23)C1 [Example 78, 2-((3S)-3-{[(4-{[3-chloro-4-(1,3-thiazol-4-ylmethoxy)phenyl]amino}quinazolin-5-yl)oxy]methyl}piperidin-1-yl)-2-oxoethanol]
2.4 µM	0.63 µM	33 µM	Cc1cccc(COc2ccc(Nc3ncnc4cccc(OC[C@@H]5CCCN5C(=O)CO)c34)cc2Cl)n1 [Example 40]
